Results published in ChEMBL document CHEMBL1201862, “PubChem BioAssay data set” (2004).
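Growth conditions: 96-well plates. Treatment: test compound, 48 hours, 5 concentrations. Analysis: linear interpolation between bracketing concentrations; unreached endpoints set to highest concentration. GI50 is the concentration that inhibits growth by half.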 Active and inactive are the calls of the source. No stated cut-off is given here; in the data, active = GI50 up to about 1.1 µM and inactive = higher.

What was measured:
Assay in all cases: NCI-60 cell line screen, 48 h
786-0 = tested on: 786-0
A498 = tested on: A498
A549 = tested on: A549
ACHN = tested on: ACHN
BT-549 = tested on: BT-549
CAKI-1 = tested on: CAKI-1
COLO 205 = tested on: COLO 205
DU-145 = tested on: DU-145
EKVX = tested on: EKVX
HCC 2998 = tested on: HCC 2998
HCT-116 = tested on: HCT-116
HCT-15 = tested on: HCT-15
HL-60 = tested on: HL-60
HOP-62 = tested on: HOP-62
HOP-92 = tested on: HOP-92
HT-29 = tested on: HT-29
Hs-578T = tested on: Hs-578T
IGROV-1 = tested on: IGROV-1
K562 = tested on: K562
KM12 = tested on: KM12
LOX IMVI = tested on: LOX IMVI
M14 = tested on: M14
MCF7 = tested on: MCF7
MDA-MB-435 = tested on: MDA-MB-435
MDA-N = tested on: MDA-N
MOLT-4 = tested on: MOLT-4
Malme-3M = tested on: Malme-3M
NCI-H226 = tested on: NCI-H226
NCI-H23 = tested on: NCI-H23
NCI-H460 = tested on: NCI-H460
NCI-H522 = tested on: NCI-H522
NCI/ADR-RES = tested on: NCI/ADR-RES
OVCAR-3 = tested on: OVCAR-3
OVCAR-4 = tested on: OVCAR-4
OVCAR-5 = tested on: OVCAR-5
OVCAR-8 = tested on: OVCAR-8
PC-3 = tested on: PC-3
RPMI-8226 = tested on: RPMI-8226
RXF 393 = tested on: RXF 393
SF-268 = tested on: SF-268
SF-295 = tested on: SF-295
SF-539 = tested on: SF-539
SK-MEL-28 = tested on: SK-MEL-28
SK-MEL-2 = tested on: SK-MEL-2
SK-MEL-5 = tested on: SK-MEL-5
SK-OV-3 = tested on: SK-OV-3
SN12C = tested on: SN12C
SR = tested on: SR
SW-620 = tested on: SW-620
TK-10 = tested on: TK-10
U-251 = tested on: U-251
UACC-257 = tested on: UACC-257
UACC-62 = tested on: UACC-62
UO-31 = tested on: UO-31
CCRF-CEM = tested on: CCRF-CEM
MDA-MB-231 = tested on: MDA-MB-231
SNB-19 = tested on: SNB-19
SNB-75 = tested on: SNB-75
T47D = tested on: T47D

## CC[C@H]1C=CCC[C@@]2(C[C@@H]3CC[C@H]4[C@@H](C(=O)OCCCCCCCCCCCCCCCC(=O)N(CCCN)C[C@@H](O)CCN)[C@@]5(CCC[C@@H](C)O5)NC(=[N+]34)N2)O1
786-0
  GI50: 1.88 µM (inactive)
A498
  GI50: 3.01 µM (inactive)
A549
  GI50: 1.77 µM (inactive)
ACHN
  GI50: 3.9 µM (inactive)
BT-549
  GI50: 2.01 µM (inactive)
CAKI-1
  GI50: 5.64 µM (inactive)
COLO 205
  GI50: 1.83 µM (inactive)
DU-145
  GI50: 1.8 µM (inactive)
EKVX
  GI50: 1.76 µM (inactive)
HCC 2998
  GI50: 1.73 µM (inactive)
HCT-116
  GI50: 1.61 µM (inactive)
HCT-15
  GI50: > 10 µM
HL-60
  GI50: 2.14 µM (inactive)
HOP-62
  GI50: 1.69 µM (inactive)
HOP-92
  GI50: 1.87 µM (inactive)
HT-29
  GI50: 1.61 µM (inactive)
Hs-578T
  GI50: 1.83 µM (inactive)
IGROV-1
  GI50: 1.74 µM (inactive)
K562
  GI50: 1.48 µM (inactive)
KM12
  GI50: 1.57 µM (inactive)
LOX IMVI
  GI50: 1.91 µM (inactive)
M14
  GI50: 1.91 µM (inactive)
MCF7
  GI50: 1.62 µM (inactive)
MDA-MB-435
  GI50: 1.55 µM (inactive)
MDA-N
  GI50: 1.66 µM (inactive)
MOLT-4
  GI50: 1.23 µM (inactive)
Malme-3M
  GI50: 1.67 µM (inactive)
NCI-H226
  GI50: 1.6 µM (inactive)
NCI-H23
  GI50: 1.78 µM (inactive)
NCI-H460
  GI50: 1.74 µM (inactive)
NCI-H522
  GI50: 1.66 µM (inactive)
NCI/ADR-RES
  GI50: > 10 µM (inactive)
OVCAR-3
  GI50: 3.91 µM (inactive)
OVCAR-4
  GI50: 3.4 µM (inactive)
OVCAR-5
  GI50: 1.63 µM (inactive)
OVCAR-8
  GI50: 2.36 µM (inactive)
PC-3
  GI50: 1.62 µM (inactive)
RPMI-8226
  GI50: 1.07 µM (active)
RXF 393
  GI50: 1.8 µM (inactive)
SF-268
  GI50: 1.93 µM (inactive)
SF-295
  GI50: 1.9 µM (inactive)
SF-539
  GI50: 1.4 µM (inactive)
SK-MEL-28
  GI50: 1.36 µM (inactive)
SK-MEL-2
  GI50: 1.7 µM (inactive)
SK-MEL-5
  GI50: 1.47 µM (inactive)
SK-OV-3
  GI50: 1.8 µM (inactive)
SN12C
  GI50: 2.96 µM (inactive)
SR
  GI50: 1.85 µM (inactive)
SW-620
  GI50: 2.12 µM (inactive)
TK-10
  GI50: 1.58 µM (inactive)
U-251
  GI50: 1.64 µM (inactive)
UACC-257
  GI50: 1.75 µM (inactive)
UACC-62
  GI50: 1.78 µM (inactive)
UO-31
  GI50: 9.18 µM (inactive)

## CCOC(=O)c1ccc(N(CCOS(=O)(=O)c2ccc(C)cc2)CCOS(=O)(=O)c2ccc(C)cc2)cc1
A498
  GI50: > 100 µM (inactive)
A549
  GI50: 8.91 µM (inactive)
ACHN
  GI50: 6.78 µM (inactive)
BT-549
  GI50: > 100 µM (inactive)
CAKI-1
  GI50: 4.94 µM (inactive)
CCRF-CEM
  GI50: 2.47 µM (inactive)
COLO 205
  GI50: > 100 µM (inactive)
EKVX
  GI50: > 100 µM (inactive)
HCC 2998
  GI50: > 100 µM (inactive)
HCT-116
  GI50: 27.3 µM (inactive)
HCT-15
  GI50: > 100 µM
HOP-92
  GI50: > 100 µM (inactive)
HT-29
  GI50: > 100 µM (inactive)
Hs-578T
  GI50: > 100 µM (inactive)
IGROV-1
  GI50: > 100 µM (inactive)
K562
  GI50: > 100 µM (inactive)
KM12
  GI50: > 100 µM (inactive)
LOX IMVI
  GI50: > 100 µM (inactive)
M14
  GI50: > 100 µM (inactive)
MCF7
  GI50: 7.05 µM (inactive)
MDA-MB-231
  GI50: 27.2 µM (inactive)
MDA-MB-435
  GI50: > 100 µM (inactive)
MDA-N
  GI50: > 100 µM (inactive)
MOLT-4
  GI50: 2.7 µM (inactive)
Malme-3M
  GI50: > 100 µM (inactive)
NCI-H23
  GI50: > 100 µM (inactive)
NCI-H460
  GI50: 4.66 µM (inactive)
NCI-H522
  GI50: > 100 µM (inactive)
NCI/ADR-RES
  GI50: > 100 µM (inactive)
OVCAR-3
  GI50: > 100 µM (inactive)
OVCAR-4
  GI50: 32.8 µM (inactive)
OVCAR-5
  GI50: > 100 µM (inactive)
OVCAR-8
  GI50: > 100 µM (inactive)
PC-3
  GI50: 17 µM (inactive)
RPMI-8226
  GI50: 10 µM (inactive)
RXF 393
  GI50: 4.49 µM (inactive)
SF-268
  GI50: > 100 µM (inactive)
SF-295
  GI50: > 100 µM (inactive)
SF-539
  GI50: < 0.01 µM (active)
SK-MEL-2
  GI50: 19.8 µM (inactive)
SK-MEL-5
  GI50: > 100 µM (inactive)
SN12C
  GI50: < 0.01 µM (active)
SNB-19
  GI50: > 100 µM (inactive)
SW-620
  GI50: 1.95 µM (inactive)
TK-10
  GI50: > 100 µM (inactive)
U-251
  GI50: 6.76 µM (inactive)
UACC-257
  GI50: > 100 µM (inactive)
UACC-62
  GI50: > 100 µM (inactive)
UO-31
  GI50: 12.8 µM (inactive)

## CC(C)(C)CC(C)(C)NC(=S)NO
786-0
  GI50: > 100 µM (inactive)
A498
  GI50: > 100 µM (inactive)
A549
  GI50: > 100 µM (inactive)
ACHN
  GI50: > 100 µM (inactive)
CAKI-1
  GI50: > 100 µM (inactive)
CCRF-CEM
  GI50: > 100 µM (inactive)
COLO 205
  GI50: > 100 µM (inactive)
DU-145
  GI50: > 100 µM (inactive)
EKVX
  GI50: > 100 µM (inactive)
HCC 2998
  GI50: > 100 µM (inactive)
HCT-116
  GI50: > 100 µM (inactive)
HCT-15
  GI50: > 100 µM
HL-60
  GI50: > 100 µM (inactive)
HOP-62
  GI50: > 100 µM (inactive)
HOP-92
  GI50: 63.7 µM (inactive)
HT-29
  GI50: > 100 µM (inactive)
Hs-578T
  GI50: > 100 µM (inactive)
IGROV-1
  GI50: > 100 µM (inactive)
K562
  GI50: > 100 µM (inactive)
KM12
  GI50: > 100 µM (inactive)
LOX IMVI
  GI50: > 100 µM (inactive)
M14
  GI50: > 100 µM (inactive)
MCF7
  GI50: > 100 µM (inactive)
MDA-MB-231
  GI50: > 100 µM (inactive)
MDA-MB-435
  GI50: > 100 µM (inactive)
MDA-N
  GI50: > 100 µM (inactive)
MOLT-4
  GI50: > 100 µM (inactive)
Malme-3M
  GI50: > 100 µM (inactive)
NCI-H226
  GI50: > 100 µM (inactive)
NCI-H23
  GI50: > 100 µM (inactive)
NCI-H460
  GI50: > 100 µM (inactive)
NCI-H522
  GI50: > 100 µM (inactive)
NCI/ADR-RES
  GI50: > 100 µM (inactive)
OVCAR-3
  GI50: > 100 µM (inactive)
OVCAR-4
  GI50: > 100 µM (inactive)
OVCAR-5
  GI50: > 100 µM (inactive)
OVCAR-8
  GI50: > 100 µM (inactive)
PC-3
  GI50: > 100 µM (inactive)
RPMI-8226
  GI50: > 100 µM (inactive)
RXF 393
  GI50: > 100 µM (inactive)
SF-268
  GI50: > 100 µM (inactive)
SF-295
  GI50: > 100 µM (inactive)
SF-539
  GI50: > 100 µM (inactive)
SK-MEL-28
  GI50: > 100 µM (inactive)
SK-MEL-2
  GI50: > 100 µM (inactive)
SK-MEL-5
  GI50: > 100 µM (inactive)
SK-OV-3
  GI50: > 100 µM (inactive)
SN12C
  GI50: > 100 µM (inactive)
SNB-19
  GI50: > 100 µM (inactive)
SNB-75
  GI50: > 100 µM (inactive)
SR
  GI50: > 100 µM (inactive)
SW-620
  GI50: > 100 µM (inactive)
T47D
  GI50: > 100 µM (inactive)
TK-10
  GI50: > 100 µM (inactive)
UACC-257
  GI50: > 100 µM (inactive)
UACC-62
  GI50: > 100 µM (inactive)
UO-31
  GI50: > 100 µM (inactive)
